# Tests used:
# [1] = molecular target: bovine serum albumin (BSA) (Bos taurus, UniProt P02769); test: Yeast surface titration with biotinylated BSA (selectivity control); format: binding; settings: Figure S7A, intracellular transglutaminase route
# Procedure: (§1) The binding affinity of cyclo[E-[…]-K] for N-terminal YAP and WW-YAP was characterized using a yeast surface titration method developed in prior work. Specifically, yeast cells displaying (putative) cyclo[E-[…]-K] were incubated with soluble, biotinylated N-terminal YAP or WW-YAP to generate binding isotherms; the fraction of cell surface fusions bound by the biotinylated target protein was quantified via immunofluorescent detection of SA-PE (Figure 4). The resulting data were fit to a monovalent binding isotherm to estimate the binding affinity (KD) of the peptide (Table 1). […]
# (§2) Figure 4 Surface titrations of (A) yeast cells displaying (putative) cyclo[E-[…]-K] with the WW domain of YAP (WW-YAP, black circles) and bovine serum albumin (BSA, green diamonds); (B) yeast cells displaying the linear peptide sequence […] with WW-YAP; (C) yeast cells displaying (putative) cyclo[E-[…]-K] with N-terminal-YAP (N-YAP, black circles) and BSA (green diamonds); and (D) yeast cells displaying the linear peptide sequence […] with N-YAP. The binding of each biotinylated protein was detected using SA-PE followed by flow cytometry analysis. […]
# (§3) Yeast cells encoding the linear precursor […] were induced. […] The cells were then analyzed by flow cytometry as described in [21, 50]. A SA-PE only labeling was also carried out to quantify the mean background fluorescence. […]
# TEV protease [2] = test: TEV protease cleavage, intracellular transglutaminase co-expression, flow cytometry; settings: 48 h induction
# Source text: Screening of Yeast Display Libraries of Enzymatically Treated
# Peptides to Discover Macrocyclic Peptide Ligands
# John Bowen, John Schneible, Kaitlyn Bacon, Collin Labar, Stefano Menegatti and Balaji M. Rao […]
# Plasmid construction for intracellular […]
# peptide precursors on the surface […]
# expression of the transglutaminase en-zyme downstream of the Gal10 promoter. […]
# and inserted between the AgeI and KpnI sites of […]
# under the direction of the Gal1 promoter and transglutaminase under the direction of the Gal10 promoter. […]
# a 6 base pair oligonucleotide encoding the Kex2 recognition site between the pro and active transglutaminase sequence
# 50 ng of purified PCR product was treated with 1 […]
# perature followed by incubation
# DNA was then treated for 5 min at room
# (New England Biolabs) prior to transformation into electrocompe- […]
# introduce a point mutation […]
# with an alanine (A) residue
# , followed by the treatments with […]
# prior to kinase, ligase, and DpnI treatment
# Evaluation of intracellular transglutaminase […]
# induction, a subset of the cells was treated with TEV protease as described in Section 2.3 to evaluate the extent of putative peptide cyclization. […] Induced cells that were not exposed to TEV protease were also analyzed for comparison. […]
# S.1.5. […] The enrich-ment of peptide binders targeting N-terminal YAP between the screening rounds was evaluated via flow cytometry. […]
# transglutaminase = test: Flow cytometry detection of c-myc tag after extracellular transglutaminase treatment; settings: 1 μM transglutaminase overnight, 37 °C, PBS pH 6, three independent replicates
# Source text: In this study, we adopted the sequence […] as a model linear precursor to evaluate the efficiency of transglutaminase-mediated cyclization on the surface of yeast cells; this peptide, in fact, served as model substrate in prior work on transglutaminase-mediated cyclization. Specifically, we designed a plasmid construct to express the lead sequence […] as an Aga2p fusion on the surface of Saccharomyces cerevisiae cells. Together with the model peptide, the Aga2p fusion construct contains c-myc and HA epitope tags as well as a tobacco etch virus (TEV) protease signal recognition sequence (Figure 1B). […]
# (§4) Yeast cells displaying linear peptide precursors (model sequence […] or 8-mer library sequences) fused to specific epitope tags (HA and c-myc tags for model sequence […]; HA and His tags for library cells) were induced. […] The non-fluorescently conjugated primary antibodies were detected by labeling with a 1:250 dilution of goat-anti-chicken antibody (Immunoreagents, Raleigh, NC, USA) or donkey-anti-rabbit (Immunoreagents, Raleigh, NC, USA) labeled with Alexa Fluor 488 (green), respectively. […] At least 50,000 cells from each sample were analyzed using a MACSQuant VYB Cytometer (Miltenyi Biotec, Bergisch Gladbach, Germany)).
# TEV protease [3] = test: Cleavage of yeast-displayed peptide by TEV protease, flow cytometry; settings: TEV 3 μM overnight, 37 °C, PBSCl pH 8, three independent replicates
# Source text: We further evaluated the alleged cyclization yield by assessing the extent of cleavage of transglutaminase-treated vs. untreated peptide constructs from yeast cells by TEV protease. The latter recognizes the sequence ENLYFQ-G/S and cleaves between the Q and G/S residues. We hypothesize that peptide modifications—such as cyclization –inhibit TEV protease from interacting with its recognition sequence included between the construct’s His tag and HA tag. Accordingly, yeast cells expressing the linear peptide precursor—that were either treated with transglutaminase or left untreated—were incubated with TEV protease, and the binding of antibodies targeting the HA and c-myc tags was quantified via flow cytometry. […]
# as §4, with “Germany)). […]” for “Germany)).”
# N-terminal YAP (N-YAP) = molecular target: T1, N-terminal YAP (N-YAP) (Homo sapiens, UniProt P46937); test: Yeast surface titration (yeast-displayed peptide, soluble biotinylated N-terminal YAP); format: binding; settings: linear peptide, no transglutaminase
# T1 construct: which affords the expression of N-terminal YAP (AAs 1–291); made in house; host or cells: Rosetta E. coli
# T1 sequence (P46937 1-291): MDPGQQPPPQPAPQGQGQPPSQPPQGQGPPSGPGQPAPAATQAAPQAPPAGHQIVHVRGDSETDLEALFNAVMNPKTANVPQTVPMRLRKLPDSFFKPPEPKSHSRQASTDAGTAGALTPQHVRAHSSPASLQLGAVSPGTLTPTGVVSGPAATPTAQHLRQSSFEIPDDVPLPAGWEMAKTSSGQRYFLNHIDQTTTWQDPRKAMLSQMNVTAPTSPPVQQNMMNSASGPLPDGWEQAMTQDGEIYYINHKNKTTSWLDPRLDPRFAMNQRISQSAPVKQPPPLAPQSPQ
# Procedure: as §1, §2, §3
# [4] = molecular target: T2, WW domains of YAP (WW-YAP) (Homo sapiens, UniProt P46937); test: Yeast surface titration (yeast-displayed peptide, soluble biotinylated WW-YAP); format: binding; set-up: key to KD (apparent) WW-YAP: N/D: not detectable; L/B: low binding; settings: for binding to WW-YAP (in words): linear peptide, no transglutaminase
# T2 construct: which affords the expression of the WW domains of YAP (AAs 165–271); made in house; host or cells: Rosetta E. coli
# T2 sequence (P46937 165-271): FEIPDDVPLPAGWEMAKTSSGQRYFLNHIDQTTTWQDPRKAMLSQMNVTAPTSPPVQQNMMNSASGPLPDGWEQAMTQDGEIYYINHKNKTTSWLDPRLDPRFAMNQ
# Procedure: The binding affinity of cyclo[E-[…]-K] for N-terminal YAP and WW-YAP was characterized using a yeast surface titration method developed in prior work. Specifically, yeast cells displaying (putative) cyclo[E-[…]-K] were incubated with soluble, biotinylated N-terminal YAP or WW-YAP to generate binding isotherms; the fraction of cell surface fusions bound by the biotinylated target protein was quantified via immunofluorescent detection of SA-PE (Figure 4). The resulting data were fit to a monovalent binding isotherm to estimate the binding affinity (KD) of the peptide (Table 1). Binding isotherms were also generated using BSA (Figure 4A,C), to characterize the binding selectivity, as well as for cells displaying the linear precursor ([…]), to evaluate the effect of cyclization on the binding activity of the identified peptide sequence (Figure 4B,D).
# as §2
# Yeast cells encoding the linear precursor […] were induced. […] The cells were then analyzed by flow cytometry as described in [21, 50]. A SA-PE only labeling was also carried out to quantify the mean background fluorescence. […] The values of KD were estimated using Equation (1):(1) F=Fmax[L]o/KD+[L]o where F is the background subtracted mean fluorescence intensity, [L]o is the concentration of soluble target protein used for labeling, and Fmax is the background subtracted fluorescence intensity when surface-saturation is obtained. Fmax was set as the highest value of fluorescence observed in each data set. […]
# bovine serum albumin (BSA), sequence (P02769 25-607): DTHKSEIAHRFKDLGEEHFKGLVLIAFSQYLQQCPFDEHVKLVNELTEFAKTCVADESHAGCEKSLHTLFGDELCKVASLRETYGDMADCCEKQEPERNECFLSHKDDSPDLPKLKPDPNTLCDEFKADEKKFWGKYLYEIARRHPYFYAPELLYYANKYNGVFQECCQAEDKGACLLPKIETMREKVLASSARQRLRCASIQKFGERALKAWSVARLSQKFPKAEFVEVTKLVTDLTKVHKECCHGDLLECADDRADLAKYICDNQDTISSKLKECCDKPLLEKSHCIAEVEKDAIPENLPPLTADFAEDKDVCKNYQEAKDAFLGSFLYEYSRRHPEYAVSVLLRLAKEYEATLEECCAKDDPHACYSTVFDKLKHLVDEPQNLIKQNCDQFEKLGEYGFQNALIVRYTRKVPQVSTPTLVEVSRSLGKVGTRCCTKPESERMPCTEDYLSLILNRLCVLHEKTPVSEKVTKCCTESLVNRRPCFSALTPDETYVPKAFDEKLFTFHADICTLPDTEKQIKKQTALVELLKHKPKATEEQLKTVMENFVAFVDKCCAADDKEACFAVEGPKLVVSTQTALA
substance,measurement,setting,value
cyclo[E-VQCRGKGEQ-K] (sidechain bridge or staple) [putative cyclic peptide from intracellular transglutaminase library],binding specificity N-terminal YAP vs. BSA (in words),[1],selective binder for N-terminal YAP
"ALASGSRGGG [active TG, Q-to-A lead/c-myc]",c-myc detection after TEV protease (intracellular constructs),TEV protease [2],significantly lower binding
ALQSGSRGGG-EQKLISEEDL [model peptide],c-myc signal change on transglutaminase treatment,transglutaminase,a notable decrease in the c-myc signal
same,"c-myc level after TEV protease, transglutaminase-treated",TEV protease [3]; transglutaminase-treated,only a slight decrease
same,"c-myc level after TEV protease, no transglutaminase",TEV protease [3]; untreated with transglutaminase,significant decrease in fluorescence
QLYLAYPAHK,binding to N-terminal YAP (in words),N-terminal YAP (N-YAP),shown to bind to N-terminal YAP
same,binding to WW-YAP (in words),[4]; listed as linear form of the peptide,not WW-YAP
same,binding to WW-YAP (in words),[4]; listed as linear precursors,much lower binding affinity
same,KD (apparent) WW-YAP,"[4]; monovalent binding isotherm, 1 h at 4 °C, 0.1% PBSA, SA-PE flow cytometry, average of three independent replicates ± one standard error",L/B
